Drawing on patent US8293734B2, “Nitroimidazooxazine and nitroimidazooxazole analogues and their uses” (priority 2009, dated 2012), this text covers melting point, IC50 and MIC for 46 compounds.

In general, melting point refers to the temperature of the solid-liquid transition. In general, IC50 refers to the concentration that inhibits the measured activity by half. As usually defined, the MIC is the lowest concentration found to suppress growth. Low readings indicate a more susceptible organism, high ones a less susceptible organism.

Values after ≈ are worked out from the molar mass of the structure shown. Where two headings read alike, the source gives them in different places.

The subject of series [1] is Axenically grown L. donovani amastigotes (MHOM-ET-67/L82). Nature of the series: Axenic Leishmania donovani assay. In kind it is cell-based. The note with it: 70 h incubation, read-out: IC50 L. donovani axen. The protocol:
(§1) (c) Antiprotozoal screening. Compounds were evaluated for their activities against both Trypanosoma cruzi amastigotes and Leishmania donovani amastigotes (free or encapsulated in macrophages), according to the following protocols:
(ii) Axenic Leishmania donovani assay. Axenically grown L. donovani amastigotes (MHOM-ET-67/L82) from a healthy culture in log phase were seeded at a density of 1×10^6/mL medium (SM, pH 5.4 plus 10% heat inactivated fetal calf serum) in 96-well microtitre plates (Costar™) and incubated at 37° C. (5% CO2) for 70 h in either medium alone or in the presence of serial (3-fold) dilutions of test compounds (initially prepared as 10 mg/mL stock solutions in DMSO and diluted into medium). Miltefosin was employed as a standard in each assay. After incubation, Resazurin fluorescent dye was added to each well, and incubation was continued for an additional 2 h. The IC50 values were determined from measurements of the fluorescence data.

The subject of series [2] is replicating Mycobacterium tuberculosis. In words: MABA microplate Alamar blue assay, MIC (aerobic). In kind it is cell-based. The following applies: 192 h. For orientation: Alamar Blue is a resazurin reagent that responds to reducing activity.
The test system of series [3] is L. donovani amastigotes (MHOM-ET-67/L82) in mouse macrophages. In words: Leishmania donovani infected macrophage assay. In kind it is cell-based. The note with it: 96 h incubation, read-out: IC50 L. donovani macro. The protocol:
as §1
(iii) Leishmania donovani infected macrophage assay. Freshly harvested mouse macrophages in medium (RPMI 1640 plus 10% heat inactivated fetal calf serum) were incubated at 37° C. (5% CO2) for 24 h and then infected (1:3 macrophages to amastigotes) with an axenic L. donovani amastigote culture (MHOM-ET-67/L82) in medium (SM, pH 5.4 plus 10% heat inactivated fetal calf serum). The infected macrophages were seeded at a density of 1.2×10^6/mL (by diluting in RPMI+10% FCS) in 16-well slides (Lab-tek™) and incubated at 37° C. (5% CO2) for 24 h. The medium was removed and replaced by fresh medium (RPMI 1640+10% FCS), and this was repeated following mixing. The infected macrophages were then incubated at 37° C. (5% CO2) for 96 h in either medium alone or in the presence of serial (3-fold) dilutions of test compounds (initially prepared as 10 mg/mL stock solutions in DMSO and diluted into medium). Miltefosin was employed as a standard in each assay. […], the slides were fixed (5 min in 100% MeOH) and stained (10% Giemsa, 10 min). The ratio of infected to uninfected macrophages was determined by microscopic examination, and the IC50 values were then calculated by linear regression analysis.

Series [4] concerns Trypanosoma cruzi amastigotes (Tulahuen C2C4 strain). Nature of the series: Trypanosoma cruzi assay in infected L-6 cells. In kind it is cell-based. The following applies: L6, 96 h incubation, read-out: IC50 T. cruzi. The protocol:
as §1
(i) Trypanosoma cruzi assay. L-6 cells (2×10^3) in medium (100 μL of RPMI 1640 supplemented with 2 mM L-glutamine plus 10% heat inactivated fetal calf serum) were seeded in 96-well microtitre plates (Costar™) and incubated at 37° C. (5% CO2) for 1d. A suspension (50 μL) of Trypanosoma cruzi trypomastigotes (5×10^3 of Tulahuen C2C4 strain, containing the β-galactosidase gene) was added, and the cells were incubated at 37° C. (5% CO2) for a further 48 h to establish the infection. The medium was removed and replaced by fresh medium and the infected cells were then incubated at 37° C. (5% CO2) for 96 h in either medium alone or in the presence of serial (3-fold) dilutions of test compounds (initially prepared as 10 mg/mL stock solutions in DMSO and diluted into medium). Benznidazole was employed as a standard in each assay. Following incubation, chlorophenol red glycoside (100 mM) in 0.1% Nonidet P40/PBS (50 μL) was added, and (after 6 h) the absorbance at 540 nm was measured and used to calculate the IC50 values.

For another series, the system named is VERO cells (CCL-81). Nature of the series: Mammalian cell cytotoxicity assay (tetrazolium dye). In kind it is cell-based. The following applies: Chlorocebus sabaeus, read-out: IC50 VERO. The protocol: (b) Mammalian cell cytotoxicity assay. This was assessed against VERO cells (CCL-81, American Type Culture Collection) in a 72 h exposure, using a tetrazolium dye assay (Falzari et al., 2005).

In turn, `CC1(COCc2ccc(OC(F)(F)F)cc2)CCn2cc([N+](=O)[O-])nc2O1` (centres unmarked) displayed a melting point of 100 to 101 °C. Compound `O=[N+]([O-])c1cn2c(n1)OCC(COc1ccc(-c3ccc(F)cc3)cn1)C2` (centres unmarked) returned a melting point of 160 to 161 °C. With `CC1(COc2ccc(-c3ccc(C(F)(F)F)cc3)cc2)Cn2cc([N+](=O)[O-])nc2O1` (centres unmarked) [Compound 11, 2-methyl-6-nitro-2-({[4′-(trifluoromethyl)[1,1′-biphenyl]-4-yl]oxy}methyl)-2,3-dihydroimidazo[2,1-b][1,3]oxazole], the melting point is 219 to 220 °C. Besides, in series [1], the IC50 turned out to be 0.028 µg/mL (≈ 0.0668 µM). 0.08 µM (≈ 0.0335 µg/mL) was the least that counted as inhibitory in series [2] (MIC). Moreover, the IC50 in series [3] was determined as 0.47 µg/mL (≈ 1.12 µM). Further, the IC50 in series [4] stood at 18 µg/mL (≈ 42.9 µM). Moreover, in the series with VERO cells (CCL-81) (72 h), the IC50 was more than 128 µM. `O=[N+]([O-])c1cn2c(n1)OC(COc1ccc(-c3ccc(C(F)(F)F)cc3)cc1)C2` (centres unmarked): the melting point was 210 to 211 °C. Same read-out and setting: with `CC1(COc2ccc(OCc3ccccc3)cc2)CCn2cc([N+](=O)[O-])nc2O1` (centres unmarked) the figure was 174 to 176 °C. On the same count and under the same terms, the figure for `O=[N+]([O-])c1cn2c(n1)OCC(COc1ccc(-c3ccc(F)cc3)nc1)C2` (centres unmarked) is 214 to 216 °C; for `O=[N+]([O-])c1cn2c(n1)OCC(COc1ccc(-c3ccc(OC(F)(F)F)cc3)nc1)C2` (centres unmarked) it is 180 to 181 °C. Same read-out and setting: the figure for `O=[N+]([O-])c1cn2c(n1)OC(COc1ccc(-c3ccc(OC(F)(F)F)cc3)cn1)C2` (centres unmarked) is 127 to 130 °C.

In turn, `CC1(COc2ccc(-c3ccc(F)cc3)cc2)CCn2cc([N+](=O)[O-])nc2O1` (centres unmarked) came in with a melting point of 160 to 162 °C. As for `CC1(COCc2cccc(-c3ccc(OC(F)(F)F)cc3)c2)CCn2cc([N+](=O)[O-])nc2O1` (centres unmarked), the melting point was 80 to 82 °C. As to `O=[N+]([O-])c1cn2c(n1)OC[C@H](COc1ccc(OC(F)(F)F)cc1)C2`, the melting point fell in the range of 139 to 140 °C. On the same count and under the same terms, the figure for `CC1(COc2cnc(-c3ccc(F)cc3)cn2)Cn2cc([N+](=O)[O-])nc2O1` (centres unmarked) is 200 to 201 °C; for `O=[N+]([O-])c1cn2c(n1)OC(COCc1ccc(OCc3ccccc3)cc1)C2` (centres unmarked) it is 123 to 124 °C. On to `CC1(COCc2cccc(OC(F)(F)F)c2)CCn2cc([N+](=O)[O-])nc2O1` (centres unmarked), for which the melting point was in the range of 108 to 110 °C. On the same count and under the same terms, the figure for `CC1(COc2ccc(-c3ccc(OC(F)(F)F)cc3)cn2)CCn2cc([N+](=O)[O-])nc2O1` (centres unmarked) is 195 to 198 °C.

`O=[N+]([O-])c1cn2c(n1)OC(COc1ccc(OC(F)(F)F)cc1)C2` (centres unmarked) displayed a melting point of 170 to 172 °C. The same measure, in the same setting: with `O=[N+]([O-])c1cn2c(n1)OCC(COc1ccc(-c3ccc(OC(F)(F)F)cc3)cn1)C2` (centres unmarked) the figure was 182 to 183 °C; with `O=[N+]([O-])c1cn2c(n1)OCC(COc1ccc(-c3ccc(F)cc3)cc1)C2` (centres unmarked), 201 to 203 °C. The same measure, in the same setting: with `O=[N+]([O-])c1cn2c(n1)OC[C@@H](COc1ccc(OC(F)(F)F)cc1)C2` the figure was 138 to 139 °C. On to `O=[N+]([O-])c1cn2c(n1)OC(COc1ccc(-c3ccc(C(F)(F)F)cc3)cc1)CC2` (centres unmarked), for which the melting point was 242 to 245 °C. The compound `CC1(COc2ccc(-c3ccc(C(F)(F)F)cc3)cc2)CCn2cc([N+](=O)[O-])nc2O1` (centres unmarked) gave a melting point of 196 to 198 °C.

`O=[N+]([O-])c1cn2c(n1)OC(COCc1ccc(OCc3ccccc3)cc1)CC2` (centres unmarked) [Compound 49, 7-({[4-(benzyloxy)benzyl]oxy}methyl)-2-nitro-6,7-dihydro-5H-imidazo[2,1-b][1,3]oxazine] yielded a melting point of 151 to 153 °C. In addition, in series [1], the IC50 is 0.048 µg/mL (≈ 0.121 µM). Further, the IC50 in series [3] worked out at 0.065 µg/mL (≈ 0.164 µM). For the same compound, the half-inhibitory concentration (IC50) in series [4] worked out at 0.55 µg/mL (≈ 1.39 µM). Also, the IC50 with VERO cells (CCL-81) (72 h exposure) was more than 128 µM. The compound `O=[N+]([O-])c1cn2c(n1)OCC(COc1ccc(-c3ccc(C(F)(F)F)cc3)cc1)C2` (centres unmarked) returned a melting point of 218 to 221 °C. The compound `O=[N+]([O-])c1cn2c(n1)OCC(COc1ccc(-c3ccc(C(F)(F)F)cc3)cn1)C2` (centres unmarked) gave a melting point of 180 to 182 °C. Turning to `CC1(COc2ccc(-c3ccc(C(F)(F)F)cc3)nc2)CCn2cc([N+](=O)[O-])nc2O1` (centres unmarked), the melting point lay in the range of 215 to 217 °C. `CC1(COc2cnc(-c3ccc(OC(F)(F)F)cc3)cn2)Cn2cc([N+](=O)[O-])nc2O1` (centres unmarked): the melting point was 222 to 224 °C. Still for that read-out and setting: the figure for `CC1(COc2cnc(-c3ccc(OC(F)(F)F)cc3)nc2)Cn2cc([N+](=O)[O-])nc2O1` (centres unmarked) is 223 to 225 °C; for `CC1(COc2ccc(-c3ccc(C(F)(F)F)cc3)cn2)CCn2cc([N+](=O)[O-])nc2O1` (centres unmarked) it is 212 to 214 °C; for `CC1(COc2ccc(-c3ccc(OC(F)(F)F)cc3)nc2)Cn2cc([N+](=O)[O-])nc2O1` (centres unmarked) it is 209 to 211 °C. Still for that read-out and setting: with `CC1(COc2ccc(-c3ccc(OC(F)(F)F)cc3)cn2)Cn2cc([N+](=O)[O-])nc2O1` (centres unmarked) the figure was 172 to 174 °C. Compound `O=[N+]([O-])c1cn2c(n1)OCC(COCc1ccc(OCc3ccccc3)cc1)C2` (centres unmarked) [Compound 73, 6-({[4-(benzyloxy)benzyl]oxy}methyl)-2-nitro-6,7-dihydro-5H-imidazo[2,1-b][1,3]oxazine] returned a melting point of 150 to 151 °C. The IC50 in series [1] is 0.16 µg/mL (≈ 0.405 µM). Besides, in series [3], the IC50 worked out at 0.53 µg/mL (≈ 1.34 µM). The IC50 in series [4] turned out to be 2.8 µg/mL (≈ 7.08 µM). Further, the IC50 with VERO cells (CCL-81) (72 h exposure) was 113 µM. `CC1(COc2ccc(-c3ccc(F)cc3)nc2)Cn2cc([N+](=O)[O-])nc2O1` (centres unmarked) gave a melting point of 180 to 181 °C. For the compound `O=[N+]([O-])c1cn2c(n1)OC(COc1ccc(OCc3ccccc3)cc1)CC2` (centres unmarked) (hydrate or solvate), the melting point was 222 to 224 °C.

The compound `CC1(COc2ccc(-c3ccc(F)cc3)cn2)Cn2cc([N+](=O)[O-])nc2O1` (centres unmarked) returned a melting point of 162 to 164 °C. With `O=[N+]([O-])c1cn2c(n1)OCC(COc1ccc(-c3ccc(OC(F)(F)F)cc3)cc1)C2` (centres unmarked), the melting point was in the range of 192 to 194 °C.

Turning to `O=[N+]([O-])c1cn2c(n1)OC(COc1ccc(OCc3ccccc3)cc1)C2` (centres unmarked), the melting point lay within 208 to 210 °C.

Take `CC1(COc2ccc(-c3ccc(OC(F)(F)F)cc3)nc2)CCn2cc([N+](=O)[O-])nc2O1` (centres unmarked): the melting point lay in the range of 202 to 203 °C. In turn, `O=[N+]([O-])c1cn2c(n1)OCC(COc1ccc(OC(F)(F)F)cc1)C2` (racemic) returned a melting point of 141 to 143 °C.

For the compound `O=[N+]([O-])c1cn2c(n1)OC(COCc1ccc(OC(F)(F)F)cc1)C2` (centres unmarked), the melting point is 134 to 135 °C. Still for that read-out and setting: the figure for `O=[N+]([O-])c1cn2c(n1)OC(COc1ccc(-c3ccc(OC(F)(F)F)cc3)cc1)C2` (centres unmarked) is 200 to 201 °C; for `CC1(COc2ncc(-c3ccc(F)cc3)cn2)Cn2cc([N+](=O)[O-])nc2O1` (centres unmarked) it is 196 °C (dec.). The same measure, in the same setting: the figure for `CC1(COc2ncc(-c3ccc(OC(F)(F)F)cc3)cn2)Cn2cc([N+](=O)[O-])nc2O1` (centres unmarked) is 227 °C (dec.). The compound `CC1(COc2cnc(-c3ccc(F)cc3)nc2)Cn2cc([N+](=O)[O-])nc2O1` (centres unmarked) yielded a melting point of 201 to 203 °C.

For the compound `O=[N+]([O-])c1cn2c(n1)OC(COc1ccc(-c3ccc(OC(F)(F)F)cc3)cn1)CC2` (centres unmarked), the melting point was in the range of 161 to 163 °C. `O=[N+]([O-])c1cn2c(n1)OCC(COc1ccc(-c3ccc(C(F)(F)F)cc3)nc1)C2` (centres unmarked): the melting point lay in the range of 233 to 235 °C. In the case of `O=[N+]([O-])c1cn2c(n1)OC(COc1ccc(-c3ccc(F)cc3)cc1)C2` (centres unmarked), the melting point lay within 224 to 226 °C.
